Test results taken from PubChem BioAssay (NCI).
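96-well plates; 48 h exposure; 5 concentrations. Endpoints by linear interpolation between flanking doses. Not reached: highest tested concentration assigned. TGI: total growth inhibition.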

Experiments:
Assay in all cases: NCI anticancer screen, dose series, 48 h
[1] = system: SF-268 CNS
[2] = system: DU-145 prostate
[3] = system: OVCAR-8 ovarian
[4] = system: T-47D breast
[5] = system: IGROV1 ovarian
[6] = system: MDA-MB-435
[7] = system: NCI/ADR-RES ovarian
[8] = system: UO-31 renal
[9] = system: K-562 leukemia
[10] = system: UACC-257 melanoma
[11] = system: ACHN renal
[12] = system: CCRF-CEM leukemia
[13] = system: A498 renal
[14] = system: CAKI-1 renal
[15] = system: NCI-H226 lung
[16] = system: UACC-62 melanoma
[17] = system: MDA-N
[18] = system: U251 CNS
[19] = system: PC-3 prostate
[20] = system: SW-620 colon
[21] = system: EKVX NSCLC
[22] = system: BT-549 breast
[23] = system: COLO 205 colon
[24] = system: TK-10 renal
[25] = system: RXF 393 renal
[26] = system: MALME-3M melanoma
[27] = system: HCT-116 colon
[28] = system: OVCAR-3 ovarian
[29] = system: SNB-75 CNS
[30] = system: HOP-62 NSCLC
[31] = system: NCI-H23 lung
[32] = system: A549 NSCLC
[33] = system: SK-MEL-5 melanoma
[34] = system: 786-0 renal
[35] = system: KM12 colon
[36] = system: SF-539 CNS
[37] = system: SK-MEL-28 melanoma
[38] = system: RPMI-8226 leukemia
[39] = system: LOX IMVI melanoma
[40] = system: M14 melanoma
[41] = system: HCT-15 colon
[42] = system: SNB-19 CNS
[43] = system: HT29 colon
[44] = system: HS 578T breast
[45] = system: MDA-MB-231 breast
[46] = system: SF-295 CNS
[47] = system: SK-OV-3 ovarian
[48] = system: HL-60(TB) leukemia
[49] = system: OVCAR-5 ovarian
[50] = system: MCF7 breast
[51] = system: SR leukemia
[52] = system: HOP-92 NSCLC
[53] = system: NCI-H522 lung
[54] = system: SN12C renal
[55] = system: MOLT-4 leukemia
[56] = system: NCI-H460 lung
[57] = system: HCC-2998 colon
[58] = system: SK-MEL-2 melanoma
[59] = system: OVCAR-4 ovarian

Measured: TGI

COc1ccc(Nc2nc3ccccc3nc2C(=O)O)cc1OC
75.1 µM: [13]
> 100 µM: [1] | [2] | [3] | [4] | [5] | [6] | [7] | [9] | [10] | [11] | [12] | [14] | [15] | [16] | [17] | [18] | [19] | [20] | [21] | [22] | [23] | [24] | [25] | [26] | [27] | [28] | [29] | [30] | [31] | [32] | [33] | [34] | [35] | [36] | [37] | [38] | [39] | [40] | [41] | [42] | [43] | [44] | [45] | [46] | [47] | [48] | [49] | [50] | [51] | [52] | [53] | [54] | [55] | [56] | [57]
97.8 µM: [8]

CC1(C)CN=C(Nc2ccc(F)c(F)c2)S1
> 100 µM: [1] | [2] | [3] | [4] | [5] | [6] | [7] | [8] | [9] | [10] | [11] | [12] | [58] | [14] | [15] | [16] | [17] | [18] | [19] | [20] | [21] | [22] | [23] | [24] | [25] | [26] | [27] | [28] | [29] | [30] | [31] | [32] | [33] | [34] | [35] | [36] | [37] | [38] | [39] | [40] | [41] | [42] | [43] | [44] | [45] | [46] | [47] | [48] | [49] | [50] | [51] | [53] | [54] | [59] | [55] | [57]
90.4 µM: [52]

C=C1CC(CN2CCC(=O)NC2=O)(c2ccccc2)OC1=O (stereo not given)
25.3 µM: [43]
20.7 µM: [5]
2.71 µM: [50]
23.6 µM: [6]
23.8 µM: [11]
4.92 µM: [12]
29 µM: [49]
30.8 µM: [10]
11.7 µM: [4]
7.95 µM: [38]
34.6 µM: [44]
40 µM: [21]
16.7 µM: [39]
33 µM: [32]
27.9 µM: [58]
7.57 µM: [14]
18.5 µM: [41]
3.55 µM: [59]
30.1 µM: [2]
19.9 µM: [22]
10.9 µM: [9]
26.7 µM: [17]
46.8 µM: [35]
33.4 µM: [54]
8.78 µM: [26]
31.7 µM: [28]
2.17 µM: [53]
4.78 µM: [20]
37.6 µM: [13]
36.7 µM: [3]
38.2 µM: [56]
21.3 µM: [16]
28.4 µM: [36]
30.4 µM: [19] | [47]
3.07 µM: [52]
24.8 µM: [33]
29.7 µM: [57]
12.2 µM: [27]
15.6 µM: [34]
7.9 µM: [55]
12.8 µM: [40]
32.1 µM: [18] | [45]
19.1 µM: [24]
32.3 µM: [8] | [29]
43 µM: [46]
6.25 µM: [23]
50.4 µM: [1]
5.26 µM: [51]
40.3 µM: [30]
22.5 µM: [31]
34.3 µM: [15]
32.8 µM: [7]
> 56.2 µM: [42]
4.04 µM: [48]
27.3 µM: [37]

NC(N)=NS(=O)(=O)c1ccc(NC(=O)c2ccc3[nH]c4ccccc4c(=O)c3c2)cc1
> 100 µM: [1] | [2] | [3] | [4] | [5] | [6] | [7] | [8] | [9] | [10] | [11] | [12] | [58] | [14] | [15] | [16] | [17] | [18] | [19] | [20] | [21] | [22] | [23] | [24] | [25] | [26] | [27] | [28] | [29] | [30] | [31] | [32] | [33] | [34] | [35] | [36] | [37] | [38] | [39] | [40] | [41] | [42] | [43] | [44] | [45] | [46] | [47] | [48] | [49] | [50] | [51] | [52] | [53] | [54] | [59] | [55] | [56] | [57]
